# According to patent publication US5866548A, “Caged membrane-permeant inositol phosphates” (priority 1996, dated 1999):
# pEC50: −log10 of the molar value. Entries after “also recorded” stand apart in the source; their conditions may differ.
# Experiments:
# 1321N1 astrocytoma cells [1] = assay: [Ca2+]i response before and after UV uncaging, fluo-3; format: cell-based
# Procedure: (b) Same experiment as (a) except done in Ca^2+ free medium (DPBS, O Ca^2+, 0.5 mM EGTA). UV exposure of the cells treated with IP3 -CPM still gave the same response, showing that the [Ca^2+ ]i increase resulted from the release of Ca^2+ from internal stores. […] The cells were loaded with fluo-3/AM. During the experiment the cells were bathed in HBS buffered with 20 mM Hepes at pH 7.4 and supplemented with 2 g/L glucose.
# The [Ca^2+ ]i was monitored using the calcium indicator fluo-3 rather than fura-2 to keep the excitation wavelength of the indicator (490 nm) far from the uncaging wavelength (360 nm) of DMNB group. […] Compared to the photolyzing set-up (direct illumination by a hand mercury lamp) used for the IP3 -binding assay, the optical throughput from the source lamp to the specimen is much higher in a microscope, so 10 seconds (as opposed to 2 hours in IP3 binding assay) of photolysis was sufficient to produce enough IP3 to elicit [Ca^2+ ]i increase. The same amount of UV alone had no effect at all on [Ca^2+ ]i in cells not treated with IP3 -CPM. After recovering from uncaging of IP3 -CPM, the cells responded to subsequent carbachol and thapsigargin stimulation normally.
# This confirmed that the [Ca^2+ ]i increase due to uncaging of IP3 -CPM resulted from internal Ca^2+ release, which was consistent with the normal mechanism of IP3 action.
# Chemical stability = format: physicochemical
# [2] = test system: human embryonic kidney cells (HEK cells); assay: [Ca2+]i response on flash photolysis of loaded cells; format: cell-based
# Procedure: In human embryonic kidney cells (HEK cells), the extracellular IP3 -CPM was washed away after the cells had been loaded with 50 μM of IP3 -CPM for 20 minutes. […] Cells in the same dish which had not been exposed to UV light were kept in the dark for over 6 hours. […] However, pretreatment of IP3 -CPM with acetic acid will unmask the 3-hydroxyl and enable the intracellular phosphorylation of delivered IP3.
# [3] = test system: P388D1 macrophage-like cells; assay: [Ca2+]i response before and after UV uncaging, fluo-3; format: cell-based; details: for [Ca2+]i after UV (360 nm, 10 s): 20 μM
# Procedure: The cells were loaded with fluo-3/AM. During the experiment the cells were bathed in HBS buffered with 20 mM Hepes at pH 7.4 and supplemented with 2 g/L glucose.
# Another example was carried out in P388D1 macrophage-like cells.
# Studies by Asmis et al. (92) have shown that, in P388D1 macrophage-like cells, PAF stimulated PGE2 production is mediated through two separate signals: IP3 induced [Ca^2+ ]i increase and another unidentified signal. IP3 -CPM might serve as a new tool for detailed study of PGE2 formation and AA release in relation to IP3 and [Ca^2+ ]i in these cells. One of the major advantages of using permeant IP3 derivatives is that experiments can be easily carried out in a population of cells, which is required for the measurement of AA release and PGE2 formation.
# Membrane permeability = format: in vitro ADME
# 1321N1 astrocytoma cells [4] = assay: [Ca2+]i response before and after UV uncaging, fluo-3; format: cell-based; details: with extracellular Ca2+
# [5] = test system: cAMP-dependent protein kinase (PKA); format: cell-based
# [6] = biological target: cAMP-dependent kinase type I (FICRhR) (Bos taurus, UniProt P00514); format: biochemical
# Chain of cAMP-dependent kinase type I (FICRhR) (P00514 whole entry): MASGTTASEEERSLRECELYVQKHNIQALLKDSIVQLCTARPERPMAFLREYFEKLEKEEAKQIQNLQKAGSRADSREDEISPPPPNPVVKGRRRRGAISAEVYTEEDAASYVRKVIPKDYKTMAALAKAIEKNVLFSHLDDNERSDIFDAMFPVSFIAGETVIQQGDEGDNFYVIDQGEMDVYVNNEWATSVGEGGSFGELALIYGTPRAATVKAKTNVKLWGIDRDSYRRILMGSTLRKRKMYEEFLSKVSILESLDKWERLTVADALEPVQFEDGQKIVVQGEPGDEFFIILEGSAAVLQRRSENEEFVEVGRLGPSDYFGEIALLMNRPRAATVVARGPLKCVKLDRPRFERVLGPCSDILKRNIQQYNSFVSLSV
# Source text: When PKA is doubly labeled with fluorescein on its catalytic subunits and rhodamine on its regulatory subunits to produce FICRhR, fluorescence energy transfer from the fluorescein to rhodamine occurs in the holoenzyme complex but is disrupted upon activation and dissociation of the subunits. The change in the ratio of fluorescein to rhodamine emissions parallels the increase in kinase activity and can be nondestructively imaged in single cells. REF-52 fibroblasts were microinjected with FICRhR and emission ratio images recorded at room temperature as previously described (27).
# intestinal cell line T84 = assay: cells; format: cell-based; details: for pEC50: 0.2 h, T84, ISC 12 min after addition, read-out: EC50 (chloride secretion)
# Source text: A convenient test system is the intestinal cell line T84, in which chloride secretion can be continuously monitored by mounting confluent monolayers of cells in Ussing chambers (42).
# angelfish melanophores = assay: Pigment dispersion in fish dermal melanophores; format: cell-based, angelfish (Pterophyllum scalare); details: for reversibility of dispersion: removal of compound and epinephrine
# Procedure: Melanophores permit a visual single-cell assay for the ability of cAMP analogs to enter cells and mimic cAMP actions. The melanophores were isolated on angelfish scales and the epidermis was stripped off. […] Dispersion was just detectable at 1 μM and half-maximal near 10 μM (FIG. 3A). […] The preceding examples are summarized in (64).
# [7] = 20 μM extracellular, about/over 5 min
compound,measurement,setting,value
"CCC(=O)OCOP(=O)(OCOC(=O)CC)O[C@@H]1[C@@H](OCc2cc(OC)c(OC)cc2[N+](=O)[O-])[C@H](OP(=O)(OCOC(=O)CC)OCOC(=O)CC)[C@@H]2OC(OC)O[C@@H]2[C@H]1OP(=O)(OCOC(=O)CC)OCOC(=O)CC (stereo partly drawn) [IP3 -CPM, D-2,3-O-methoxymethylene-6-O-(4,5-dimethoxy-2-nitrobenzyl)-myo-Inositol 1,4,5-trisphosphate hexakis(propionyloxymethyl)ester]",[Ca2+]i before UV,1321N1 astrocytoma cells [1]; [7],no effect on [Ca^2+ ]i
same,"[Ca2+]i after UV (360 nm, 10 s)","1321N1 astrocytoma cells [1]; 20 μM, Ca2+ free medium (0.5 mM EGTA), listed as IP3 -CPM (V-1)",same response
same,extracellular concentration eliciting maximal Ca2+ release upon uncaging,1321N1 astrocytoma cells [1]; 1321N1 astrocytoma cells,10^-6 to 10^-5 M
same,[Ca2+]i time course after uncaging,1321N1 astrocytoma cells [1]; Ca2+ free medium,soon went back to the resting level
same,chemical stability vs commercially available caged IP3,Chemical stability,chemically more stable
same,[Ca2+]i on photolysis (1 ms flash),"[2]; loaded 50 μM, 20 min, washed",transient increase in [Ca^2+ ]i
same,persistence of [Ca2+]i response to repeated flashes,"[2]; loaded 50 μM, 20 min, washed",persisted for up to a dozen repetitions
same,[Ca2+]i on photolysis after dark storage,[2]; over 6 hours in the dark after loading,[Ca^2+ ]i increases similar to those obtained immediately after being loaded; also recorded: full-scale [Ca^2+ ]i increases
same,[Ca2+]i time course after uncaging,[3],went back to the basal level in a short time
same,"[Ca2+]i after UV (360 nm, 10 s)",[3],released a fair amount of Ca^2+ from internal stores
same,[Ca2+]i before UV,[3]; [7],no effect on [Ca^2+ ]i
same,"[Ca2+]i after UV (360 nm, 10 s)",[3]; listed as IP3 -CPM (V-1),big [Ca^2+ ]i increase
same,membrane permeability (in words),Membrane permeability,crossed the cell membrane
same,"[Ca2+]i after UV (360 nm, 10 s)",1321N1 astrocytoma cells [4]; 20 μM,almost saturating [Ca^2+ ]i increase
same,[Ca2+]i time course after uncaging,1321N1 astrocytoma cells [4],remained elevated above the resting level
"CCCC(=O)Nc1ncnc2c1ncn2[C@@H]1O[C@@H]2COP(=O)(O)O[C@H]2[C@H]1OC(=O)CCC [Bt2 cAMP, N^6,O^2' -dibutyryl cAMP, reference compound]",delay and overall time course of PKA activation (in words),"[5]; REF-52, extracellular",Much the same delay and overall time course
same,potency relative to cAMP,[6]; in vitro binding to FICRhR,roughly 1/100
same,pEC50,intestinal cell line T84,3.40
same,membrane permeability (in words),Membrane permeability,poor permeability
same,pigment dispersion,angelfish melanophores; 1 mM,unable to cause any detectable dispersion
"CCCC(=O)Nc1ncnc2c1ncn2[C@@H]1O[C@@H]2COP(=O)(OCOC(C)=O)O[C@H]2[C@H]1OC(=O)CCC (some centres unmarked) [Bt2 cAMP/AM, N^6,O^2' -Dibutyryl Adenosine 3',5'-cyclic Monophosphate Acetoxymethyl Ester]",onset of separation of regulatory and catalytic subunit of FICRhR after addition,"[5]; REF-52, extracellular",roughly 2 min
same,"plateau, % of the maximal change in fluorescence ratio","[5]; REF-52, extracellular 1 μM",over 50%
same,change in fluorescence ratio (PKA activation),"[5]; REF-52, extracellular 10 μM, within 15 min",maximal change in fluorescence ratio within 15 min
same,separation of the subunits of FICRhR (in words),"[6]; in vitro, 10 μM",no separation of the subunits
same,pEC50,intestinal cell line T84,5.70
same,increase in potency by acetoxymethyl group vs Bt2 cAMP,intestinal cell line T84; T84,200 fold
same,kinetics of activation of chloride secretion (in words),"intestinal cell line T84; T84, Bt2 cAMP/AM vs Bt2 cAMP",essentially indistinguishable kinetics of activation
same,increase in potency by AM ester group vs Bt2 cAMP,angelfish melanophores,more than 1000
same,pigment dispersion,angelfish melanophores; 100 μM,essentially complete dispersal
same,reversibility of dispersion,angelfish melanophores; 100 μM,easily reversed
same,reversibility of dispersion,angelfish melanophores; 1 mM,could not be readily reversed
same,onset of dispersion,"angelfish melanophores; 1 mM, vs 100 μM",slightly faster onset of action
